Structures can show the parent of a compound that is named as a salt. Where two headings read alike, the source gives them in different places.
How the values were obtained:
Format in all cases: in vivo
[1] = test system: Scopolamine Induced Memory Deficit; test: Dark Avoidance Assay (reversal of scopolamine induced memory deficit); settings: s.c., mice
Experimental: In this assay mice are tested for their ability to remember an unpleasant stimulus for a period of 24 hours. A mouse is placed in a chamber that contains a dark compartment; a strong incandescent light drives it to the dark compartment, where an electric shock is administered through metal plates on the floor. The animal is removed from the testing apparatus and tested again, 24 hours later, for the ability to remember the electric shock.
If scopolamine, an anticholinergic that is known to cause memory impairment, is administered before an animal's initial exposure to the test chamber, the animal re-enters the dark compartment shortly after being placed in the test chamber 24 hours later.

[2] = test system: Tetrabenazine-Induced Ptosis; test: Prevention of Tetrabenazine-Induced Ptosis in Mice; settings: Mus musculus, read-out: Ed50 (prevention of tetrabenazine-induced ptosis)
Experimental: The antidepressant activities were evaluated in this invention on the basis of prevention of Tetrabenazine-induced ptosis in mice. The test method and results are described below.
Tetrabenazine (TBZ) induces behavioral depression with concomitant ptosis in mice similar to reserpine. Antidepressant compounds, both monoamineoxidase inhibitors and tricyclics, are known to prevent or antagonize these effects and the degree of antagonism correlates with clinical efficacy. The prevention of TBZ-induced ptosis in mice is used as a preliminary screen for possible antidepressant activity. The method used in this invention is as follows:
Male mice weighing 20 to 30 grams are used in test groups of five subjects. All compounds are dissolved or suspended with a suitable surfactant in distilled water and administered in volumes of 10 ml/kg of body weight. TBZ solution is made from the methanesulfonate salt and the concentration is adjusted to enable administration of 60 mg/kg of base by intraperitoneal (i.p.) injection.
The pretreatment time is measured from the time of dosing to observation. Therefore, when a 30-minute pretreat is utilized, drug and TBZ are given simultaneously. A control group received solvent and TBZ at intervals identical to drug group. For a primary screen, the drug is administered i.p. and a group size of five is utilized. Eight animals/group are used for a dose range.
The total score for each group of five in a primary screen will, therefore, be from 0 to 20 and these scores are used as indications of drug activity.
The vehicle control group score is used as a determinant of the validity of each test. […] The calculation of percent inhibition of ptosis is: [formula]

[3] = test system: 2-phenyl-1,4-benzoquinone-induced writhing; test: 2-phenyl-1,4-benzoquinone-induced writhing (PQW) test in mice; settings: Mus musculus, sc, read-out: ANALGESIC ACTIVITY ED50, POW
Excerpt: (§1) Compounds I of the present invention are also useful as analgesic agents due to their ability to alleviate pain in mammals. […] Exptl. Biol. Med., 95, 729 (1957)] and in modified Haffner's analgesia.

[4] = test system: sensitivity of mice to pressure stress (artery clip on tail); test: Modified Haffner's Analgesia (tail clip pressure stress); settings: Mus musculus, sc, read-out: ANALGESIC ACTIVITY ED50, Modified Haffner's Analgesia
Excerpt: as §1
The latter assay is used to evaluate analgesic activity by measuring drug-induced changes in the sensitivity of mice to pressure stress by placing an artery clip (21/2 inches long) on their tail. The procedure used is a modification of the test developed by Haffner, Dtsch. Med. Wschr. 55, 731 (1929), and it is described below.
Male mice (Charles River, DC-1), from 18-30 grams are used for the test. An artery clip is applied to the root of the tail of a mouse (approximately 1/2 inch from the body) to induce pain. The animals quickly respond to this noxious stimuli by biting the clip or the location of the clip. This reaction time, the interval between stimulus onset and response, is recorded in 1/10 second increments by a stop watch.
For a time response, the screening dose (25 mg/kg) is administered subcutaneously (10 ml/kg) to the animal receiving food and water ad libitum before testing. Animals receiving the compound orally are fasted 18-24 hours before drug administration. Drug to be tested is prepared with distilled water and if insoluble, one drop of a surfactant is added.
Twenty-eight animals (seven/group) are administered the drug 15, 30, 45 and 60 minutes prior to testing.
The cut-off time (CO) is determined by taking the Xav +3σ of the combined response latencies of the control mice in all time periods where Xav is the average of X and σ is the standard deviation.
Any reaction time, in subsequent drug tests, which is greater than the CO (for the same time period) therefore exceeds 99% of a normal Gaussian distribution and is called "positive response" indicative of analgesic activity. A time response indicates the period of greatest analgesic effect after dosing. The ED50 is determined at the peak time of drug activity. A minimum of three dose groups are used. ED50 's are calculated using computer analysis.

[5] = po, male mice, TBZ 60 mg/kg i.p.
[6] = male mice, at peak time of drug activity
[7] = ip, male mice, TBZ 60 mg/kg i.p.

## CN(c1ccncc1)n1ccc2ccccc21.O=C(O)/C=C\C(=O)O [Example 2, N-Methyl-N-(4-pyridinyl)-1H-indol-1-amine maleate]
[1]; 0.04 mg/kg body weight
  % of Animals With Scopolamine Induced Memory Deficit Reversed: 53%
[2]; [5]
  ED50: 3.3 mg/kg
[3]; mice
  ED50: 3.2 mg/kg
[4]; [6]
  ED50: 16.3 mg/kg

## CCN(c1ccncc1)n1cc(C=O)c2ccccc21 [Example 7, N-Ethyl-N-(4-pyridinyl)-1H-indol-1-amine-3-carboxaldehyde maleate]
[2]; [5]
  ED50: 11.9 mg/kg

## CCN(c1ccncc1)n1ccc2ccccc21.O=C(O)/C=C\C(=O)O [Example 3, N-Ethyl-N-(4-pyridinyl)-1H-indol-1-amine maleate]
[1]; 0.63 mg/kg body weight
  % of Animals With Scopolamine Induced Memory Deficit Reversed: 33%
[2]; [5]
  ED50: 5.6 mg/kg

## C=CCN(c1ccncc1)n1ccc2ccccc21.O=C(O)/C=C\C(=O)O [Example 23, N-(2-Propen-1-yl)-N-(4-pyridinyl)-1H-indol-1-amine maleate]
[2]; [7]
  ED50: 4.2 mg/kg
[3]; mice
  ED50: 1.3 mg/kg
[4]; [6]
  ED50: 3.8 mg/kg

## CCCN(c1ccncc1)n1cc(C)c2ccccc21.O=C(O)/C=C\C(=O)O [Example 20, 3-Methyl-N-propyl-N-(4-pyridinyl)-1H-indol-1-amine maleate]
[1]; 0.31 mg/kg body weight
  % of Animals With Scopolamine Induced Memory Deficit Reversed: 27%
[2]; [7]
  ED50: 1.8 mg/kg
[3]; mice
  ED50: 4.1 mg/kg
[4]; [6]
  ED50: 1.4 mg/kg

## O=C(O)/C=C\C(=O)O.c1ccc2c(c1)ccn2Nc1ccncc1 [Example 1, N-(4-Pyridinyl)-1H-indol-1-amine maleate]
[1]; 0.31 mg/kg body weight
  % of Animals With Scopolamine Induced Memory Deficit Reversed: 33%
[2]; [5]
  ED50: 3.3 mg/kg
[3]; mice
  ED50: 0.86 mg/kg
[4]; [6]
  ED50: 5.7 mg/kg

## Cc1cn(Nc2ccncc2)c2ccccc12.O=C(O)C(=O)O [Example 19, 3-Methyl-N-(4-pyridinyl)-1H-indol-1-amine oxalate]
[2]; [7]
  ED50: 1 mg/kg
[3]; mice
  ED50: 0.4 mg/kg
[4]; [6]
  ED50: 0.7 mg/kg

## CCc1cn(N(C)c2ccncc2)c2ccccc12.Cl [Example 11, 3-Ethyl-N-methyl-N-(4-pyridinyl)-1H-indol-1-amine hydrochloride]
[3]; mice
  ED50: 0.9 mg/kg
[4]; [6]
  ED50: 1 mg/kg

## CCCN(c1ccncc1)n1ccc2cc(OC)ccc21.O=C(O)/C=C\C(=O)O [Example 5, 5-Methoxy-N-propyl-N-(4-pyridinyl)-1H-indol-1-amine maleate]
[2]; [5]
  ED50: 29.8 mg/kg

## CNC(=O)Oc1ccc2c(c1)[C@]1(C)CCN(C)[C@@H]1N2C [Physostigmine, (3aS-cis)-1,2,3,3a,8,8a-hexahydro-1,3a,8-trimethyl-pyrrolo[2,3-b]indol-5-ol, methyl carbamate, reference compound]
[1]; 0.31 mg/kg body weight
  % of Animals With Scopolamine Induced Memory Deficit Reversed: 20%

## CN(c1ccncc1)n1cc(C=O)c2ccccc21 [Example 6, N-Methyl-N-(4-pyridinyl)-1H-indol-1-amine-3-carboxaldehyde maleate]
[2]; [5]
  ED50: 9.7 mg/kg

## C=Cc1cn(N(C)c2ccncc2)c2ccccc12.O=C(O)/C=C\C(=O)O [Example 10, 3-Ethenyl-N-methyl-N-(4-pyridinyl)-1H-indol-1-amine maleate]
[3]; mice
  ED50: 1 mg/kg
[4]; [6]
  ED50: 1 mg/kg

## CNCCCN1c2ccccc2CCc2ccccc21 [Desipramine, reference compound]
[2]; po
  ED50: 2.3 mg/kg

## CC(C)=CCN1CCC2(C)c3cc(O)ccc3CC1C2C (stereo not shown) [Pentazocine, reference compound]
[3]
  ED50: 1.3 mg/kg
[4]
  ED50: 3.9 mg/kg

## CN(c1ccncc1)n1ccc2cc([N+](=O)[O-])ccc21.O=C(O)/C=C\C(=O)O [Example 18, N-Methyl-5-nitro-N-(4-pyridinyl)-1H-indol-1-amine maleate]
[3]; mice
  ED50: 1 mg/kg

## CCCN(c1ccncc1)n1ccc2ccccc21.O=C(O)/C=C\C(=O)O [Example 4, N-Propyl-N-(4-pyridinyl)-1H-indol-1-amine maleate]
[1]; 0.08 mg/kg body weight
  % of Animals With Scopolamine Induced Memory Deficit Reversed: 27%
[2]; [5]
  ED50: 5.1 mg/kg
[3]; mice
  ED50: 5.1 mg/kg
[4]; [6]
  ED50: 31 mg/kg

## CCCN(c1ccncc1F)n1cc(C)c2ccccc21.Cl [Example 22, N-(3-Fluoro-4-pyridinyl)-N-propyl-3-methyl-1H-indol-1-amine hydrochloride]
[1]; 0.31 mg/kg body weight
  % of Animals With Scopolamine Induced Memory Deficit Reversed: 33%
